The results in this text go back to ChEMBL document CHEMBL5550173, “Design, synthesis and biological evaluation of indoline-maleimide conjugates as potential antitumor agents for the treatment of colorectal cancer” (Bioorg Med Chem, 2024).

Molecules are shown by their SMILES.

Series [1] deals with RKO. Kind of series: Cytotoxicity against human RKO cells at 5 uM incubated for 72 hrs by MTS assay. It counts as functional. On the technique in general: Tetrazolium dyes change colour on reduction, which living cells bring about.
Series [2] deals with HCT-116. The series is described as follows: Cytotoxicity against human HCT-116 cells at 5 uM incubated for 72 hrs by MTS assay. It counts as functional.
Series [3] has as its system HT-29. Kind of series: Cytotoxicity against human HT-29 cells at 5 uM incubated for 72 hrs by MTS assay. It counts as functional.
The subject of series [4] is HCT-116. The series is described as follows: Cytotoxicity against human HCT-116 cells incubated for 72 hrs by MTS assay. It counts as functional, cell-based. Conditions: HCT-116, 72 h.
The subject of series [5] is RKO. Kind of series: Cytotoxicity against human RKO cells incubated for 72 hrs by MTS assay. It counts as functional, cell-based.
Series [6] has as its system HT-29. Kind of series: Cytotoxicity against human HT-29 cells incubated for 72 hrs by MTS assay. It counts as functional, cell-based. Conditions: HT-29, 72 h.
Series [7] is described as follows: Cytotoxicity against human NCM460 cells incubated for 72 hrs by MTS assay. It counts as toxicity, cell-based.

In the series with RKO [1], `CC(C)(C)C(=O)N1CCc2cccc(C3=CC(=O)N(C4CCCCC4)C3=O)c21` yielded an Activity of 38.47%.

For the compound `C=C(C)C(=O)n1ccc2cccc(C3=CC(=O)N(C)C3=O)c21`, the Activity in the series on HCT-116 [2] came out at 32.89%; in the series on RKO [1], 58.25%; with HT-29 [3], 10.28%.

Take `CN1C(=O)C=C(c2cc(C#N)cc3c2N(C(=O)C(C)(C)C)CC3)C1=O`: the Activity is recorded as 50.21% with RKO [1] and 4.68% with HT-29 [3].

As for `C=C(C)C(=O)N1CCc2ccccc21`, in the series with HT-29 [3], the Activity is reported as 4.7%.

On to `CN1C(=O)C=C(c2cccc3c2N(C(=O)c2ccccc2)CC3)C1=O`, for which the Activity with RKO [1] is reported as 26.15%; in the series on HT-29 [3], 4.95%.

`CC(C)(C)C(=O)N1CCc2cccc(C3=CC(=O)N(c4ccccc4)C3=O)c21` showed an Activity with RKO [1] of 10.63%.

Compound `CC(C)(C)C(=O)N1CCc2cccc(C3=CC(=O)NC3=O)c21` displayed an Activity in the series on RKO [1] of 10.96%.

Usually IC50 stands for the concentration at which inhibition is half-maximal. Low readings indicate higher potency, high ones lower potency. For `CN1C(=O)C=C(c2cccc3c2N(C(=O)C2CC2)CC3)C1=O`, the Activity in the series with HCT-116 [2] is listed as 76.22%; in the series with RKO [1] it was 88.42%; in the series on HT-29 [3], 43.87%. Moreover, the figures for the concentration for half-maximal inhibition (IC50) in the series with HCT-116 [4], in the series with RKO [5] and with HT-29 [6] were 3.45 µM, 2.12 µM and 5.11 µM, respectively.

In turn, `CN1C(=O)C=C(c2c(F)ccc3c2N(C(=O)C(C)(C)C)CC3)C1=O` came in with an Activity with RKO [1] of 32.98%.

Compound `CC(C)N1C(=O)C=C(c2cccc3c2N(C(=O)C(C)(C)C)CC3)C1=O` had an Activity in the series on RKO [1] of 19.15%.

Turning to `CN1C(=O)C=CC1=O`, the Activity was found to be 51.17% in the series on HCT-116 [2], 33.16% in the series with RKO [1] and 7.09% in the series on HT-29 [3].

`CN1C(=O)C=C(c2cc(Cl)cc3c2N(C(=O)C(C)(C)C)CC3)C1=O`: in the series with RKO [1], the Activity was found to be 15.17%.

As to `CN1C(=O)C=C(c2cccc3c2N(C(=O)C2CCCCC2)CC3)C1=O`, in the series with RKO [1], the Activity is on record as 65.05%.

As for `CN1C(=O)C=C(c2cccc3c2N(C(=O)c2cc4ccccc4o2)CC3)C1=O`, the Activity in the series with HCT-116 [2] worked out at 11.36%; in the series with RKO [1], 46.33%.

For `CN1C(=O)C=C(c2cccc3c2N(C(=O)C(C)(C)C)CC3)C1=O`, the Activity with HCT-116 [2] worked out at 76.85%; with RKO [1], 79.24%; with HT-29 [3] it was 49.95%. Besides, the 50% inhibitory concentration (IC50) worked out at 3.96 µM with HCT-116 [4], 2.31 µM in the series with RKO [5] and 5.52 µM in the series with HT-29 [6].

Take `CCc1ccc(N2C(=O)C=C(c3cccc4c3N(C(=O)C(C)(C)C)CC4)C2=O)cc1`: the Activity in the series with HCT-116 [2] is 10.96%; in the series on RKO [1], 7.21%; with HT-29 [3], 7.09%.

For the compound `CN(C)C(=O)N1CCc2cccc(C3=CC(=O)N(C)C3=O)c21`, the Activity stood at 4.75% in the series with RKO [1] and 5.08% in the series with HT-29 [3].

For the compound `O=c1[nH]cc(F)c(=O)[nH]1` [FLUOROURACIL], the figures for the Activity in the series with HCT-116 [2], with RKO [1] and in the series with HT-29 [3] were 37.53%, 52.32% and 29.52%, respectively. Further, the IC50 in the series on HCT-116 [4] was 8.03 µM; with RKO [5], 3.96 µM. For the same compound, the IC50 at 72 h in series [7] amounted to 7.95 µM.

Take `CC1CN(C(=O)C(C)(C)C)c2c(C3=CC(=O)N(C)C3=O)cccc21` (stereo not drawn): the Activity in the series with RKO [1] is on record as 56.28%; with HT-29 [3], 6.02%.

Take `CN1C(=O)C=C(c2cc(F)cc3c2N(C(=O)C(C)(C)C)CC3)C1=O`: the Activity with HCT-116 [2] was determined as 6.51%; with RKO [1], 78.58%; in the series with HT-29 [3], 18.8%.

`CCN1C(=O)C=C(c2cccc3c2N(C(=O)C(C)(C)C)CC3)C1=O`: the Activity with HCT-116 [2] amounted to 59.58%; in the series on RKO [1] it was 80.91%; with HT-29 [3], 16.99%.

Consider `COc1ccc2c(c1C1=CC(=O)N(C)C1=O)N(C(=O)C(C)(C)C)CC2`, for which, in the series with RKO [1], the Activity is 21.09%.

With `Cc1cc2c(c(C3=CC(=O)N(C)C3=O)c1)N(C(=O)C(C)(C)C)CC2`, in the series with RKO [1], the Activity is on record as 17.49%.

Regarding `COc1ccc(C2=CC(=O)N(C)C2=O)c2c1CCN2C(=O)C(C)(C)C`, the Activity in the series on RKO [1] came out at 16.41%; in the series with HT-29 [3] it was 4.04%.

Regarding `CCC(=O)N1CCc2cccc(C3=CC(=O)N(C)C3=O)c21`, the Activity is recorded as 4.19% in the series on HCT-116 [2] and 80.31% in the series on RKO [1].

`C=CC(=O)N1CCc2cccc(C3=CC(=O)N(C)C3=O)c21`: the Activity with HCT-116 [2] is on record as 23.11%; in the series with RKO [1], 78.18%; with HT-29 [3], 2.14%.

For the compound `COC(=O)CCN1C(=O)C=C(c2cccc3c2N(C(=O)C(C)(C)C)CC3)C1=O`, the Activity with HCT-116 [2] was 21.18%; in the series with RKO [1] it was 59.55%.

Regarding `CC(=O)N1CCc2cccc(C3=CC(=O)N(C)C3=O)c21`, the values for the Activity in the series on RKO [1] and with HT-29 [3] were 48.13% and 6.8%, respectively.

In turn, `CC(=O)c1ccc(N2C(=O)C=C(c3cccc4c3N(C(=O)C(C)(C)C)CC4)C2=O)cc1` yielded an Activity with HT-29 [3] of 4.69%.

As to `CN1C(=O)C=C(c2cccc3c2N(C(=O)N2CCCCC2)CC3)C1=O`, in the series with RKO [1], the Activity turned out to be 17.85%.

In the case of `CC1Cc2cccc(C3=CC(=O)N(C)C3=O)c2N1C(=O)C(C)(C)C` (stereo not drawn), the Activity is recorded as 61.74% in the series with RKO [1] and 2.07% with HT-29 [3].

For `CN1C(=O)C=C(c2ccc(Cl)c3c2N(C(=O)C(C)(C)C)CC3)C1=O`, the Activity in the series with RKO [1] is given as 57.87%.

For the compound `CN1C(=O)C=C(c2cc(I)cc3c2N(C(=O)C(C)(C)C)CC3)C1=O`, the Activity in the series on RKO [1] was 57.09%.

As to `CC(C)(C)C(=O)N1CCc2cccc(C3=CC(=O)N(Cc4ccccc4)C3=O)c21`, in the series on RKO [1], the Activity was 39.93%.

With `CN1C(=O)C=C(c2cccc3c2N(C(=O)N2CCOCC2)CC3)C1=O`, the Activity with RKO [1] amounted to 22.03%; in the series with HT-29 [3], 6.82%.
